Experimental data as given in patent publication US11814356B1, “Salt of cabozantinib” (Apotex Inc., priority 2023, dated 2023).

Assays:
[1] = pH-dependent; at a pH>3; cited from earlier work
[2] = cited from earlier work
[3] = PXRD form stability of uncapped samples in a stability chamber; assay type: physicochemical
Procedure: Cabozantinib acesulfamate Form APO-I can be characterized by a PXRD diffractogram comprising, among other peaks, characteristic peaks, expressed in degrees 2θ (±0.2°), at 9.5°, 11.2° and 19.7°. Preferably, the PXRD diffractogram further comprises at least three peaks, expressed in degrees 2θ (±0.2°), selected from the group consisting of 9.1°, 10.2°, 12.7°, 15.9°, 17.4°, and 18.1°. More preferably, the PXRD diffractogram further comprises peaks, expressed in degrees 2θ (±0.2°), at 9.1°, 10.2°, 12.7°, 15.9°, 17.4°, and 18.1°.
PXRD diffractograms were recorded on a Bruker D8 Discover powder X-ray diffractometer (Bruker AXS LLC, Karlsruhe, Germany). The sample holder was oscillated along x and y axes during the measurement. The generator was a Incoatec Microfocus Source (IμS) Cu tube (λ=1.54060 Å) with a voltage of 50 kV and current of 1.00 mA, using a divergence slit of 0.1 mm and collimator of 2.0 mm. For each sample, one frame was collected using a still scan with a PILATUS3 R 100K-A detector at the distance of 294.2 mm from the sample. Raw data were evaluated using the program DIFFRAC.EVA (Bruker AXS LLC, Karlsruhe, Germany).

| form stability ([3]; high temperature and high humidity) | Structure (SMILES) | aqueous solubility [1] | permeability [2] | change in the crystalline form (PXRD) ([3]; uncapped samples, 40° C./75% RH stability chamber, at least 4 weeks) |
| --- | --- | --- | --- | --- |
| – | COc1cc2nccc(Oc3ccc(NC(=O)C4(C(=O)Nc5ccc(F)cc5)CC4)cc3)c2cc1OC [cabozantinib, N-(4-(6,7-dimethoxyquinolin-4-yloxy)phenyl)-N′-(4-fluorophenyl)cyclopropane-1,1-dicarboxamide] | very low solubility | high permeability | – |
| form stability | CC1=CC(=O)NS(=O)(=O)O1.COc1cc2nccc(Oc3ccc(NC(=O)C4(C(=O)Nc5ccc(F)cc5)CC4)cc3)c2cc1OC [cabozantinib acesulfamate Form APO-I, Cabozantinib Acesulfamate Form APO-I] | – | – | no change in the crystalline form occurred |
